Some results are limits rather than exact numbers.

Data set [1] is filed under the species Cavia porcellus. As to the kind of experiment: Inhibition of muscarinic receptor mediated [Ca2+] dependent contraction of guinea pig ileal longitudinal smooth muscle. The data set is classed as functional.
The target in data set [2] is Voltage-gated L-type calcium channel (Homo sapiens, UniProt Q13936+Q13698+Q01668+O60840). The experiment in a line: Calcium channel antagonistic activity relative to 2,6-Dimethyl-4-(2-nitro-phenyl)-1,4-dihydro-pyridine-3,5-dicarboxylic acid dimethyl ester(=100). In kind it is functional, Cavia porcellus. The settings on record: guinea pig.

Turning to `CCOC(=O)C1=C(C)NC(C)=C(C(=O)OCC)C1c1ccccc1`, the ID50 in data set [1] turned out to be 30 nM. Besides, in data set [2], the Relative activity was ~ 18. Regarding `COC(=O)C1=C(C)NC(C)=C(C(=O)OC)C1c1ccc(N(C)C)cc1`, in data set [1], the ID50 came out at 50000 nM. For the same compound, in data set [2], the Relative activity is recorded as 0.005. `COC(=O)C1=C(C)NC(C)=C(C(=O)OC)C1c1ccccc1` gave an ID50 in data set [1] of 28 nM. Moreover, the Relative activity in data set [2] is recorded as 18.

`COC(=O)C1=C(C)N=C(C)/C(=C(\O)OC)C1c1cccc(C)c1` (configuration not stated) returned an ID50 in data set [1] of 110 nM. Also, the Relative activity in data set [2] came out at 4.6. Take `COC(=O)C1=C(C)N=C(C)/C(=C(\O)OC)C1c1c(F)c(F)c(F)c(F)c1F` (configuration not stated): the ID50 in data set [1] was found to be 0.9 nM. As for `COC(=O)C1=C(C)N=C(C)/C(=C(\O)OC)C1c1cccc(C#N)c1` (configuration not stated), in data set [1], the ID50 is 300 nM. In addition, in data set [2], the Relative activity came to 1.7.

Take `COC(=O)C1=C(C)N=C(C)/C(=C(\O)OC)C1c1ccc(C)cc1` (configuration not stated): the ID50 in data set [1] amounted to 50000 nM. In addition, the Relative activity in data set [2] was < 0.05. Consider `COC(=O)C1=C(C)N=C(C)/C(=C(\O)OC)C1c1ccc([N+](=O)[O-])cc1[N+](=O)[O-]` (configuration not stated), for which the ID50 in data set [1] was >50000 nM. Also, the Relative activity in data set [2] is on record as < 0.05. As for `COC(=O)C1=C(C)NC(C)=C(C(=O)OC)C1c1ccccc1[N+](=O)[O-]` [NIFEDIPINE], in data set [1], the ID50 is 5.1 nM. Further, the Relative activity in data set [2] is 100.

(Values after ChEMBL document CHEMBL1122002, “Crystal structures and pharmacological activity of calcium channel antagonists: 2,6-dimethyl-3,5-dicarbomethoxy-4-(unsubstituted, 2-methyl-, 4-methyl-, 3-nitro-, 4-nitro-, and 2,4-dinitrophenyl)-1,4-dihydropyridine” (J Med Chem, 1982).)
